# From PMC12281475, “Mediator Kinase Inhibitor Selectivity and Activity in Colorectal Cancer” (ACS Chemical Biology, 2025)
# How the values were obtained:
# CDK1_CycA2 = biological target: T1, CDK1_CycA2 (Homo sapiens, UniProt P06493); assay: Radiometric protein kinase assay (33PanQinase), CDK1_CycA2; type: biochemical
# T1 construct: purchased Reaction Biology
# CDK1_CycB1 = biological target: T2, CDK1_CycB1 (Homo sapiens, UniProt P06493); assay: Radiometric protein kinase assay (33PanQinase), CDK1_CycB1; type: biochemical
# T2 construct: purchased Reaction Biology
# CDK1_CycE1 = biological target: T3, CDK1_CycE1 (Homo sapiens, UniProt P06493); assay: Radiometric protein kinase assay (33PanQinase), CDK1_CycE1; type: biochemical
# T3 construct: purchased Reaction Biology
# CDK10_CycQ = CDK10_CycQ (Homo sapiens, UniProt Q15131); assay: Radiometric protein kinase assay (33PanQinase), CDK10_CycQ; type: biochemical
# CDK11B 357-795_CycK = CDK11B 357-795_CycK (Homo sapiens, UniProt P21127); assay: Radiometric protein kinase assay (33PanQinase), CDK11B 357-795_CycK; type: biochemical
# CDK12_CycK = biological target: T4, CDK12_CycK (Homo sapiens, UniProt Q9NYV4); assay: Radiometric protein kinase assay (33PanQinase), CDK12_CycK; type: biochemical
# T4 construct: purchased Reaction Biology
# CDK13_CycK = biological target: T5, CDK13_CycK (Homo sapiens, UniProt Q14004); assay: Radiometric protein kinase assay (33PanQinase), CDK13_CycK; type: biochemical
# T5 construct: purchased Reaction Biology
# CDK14_CycY = CDK14_CycY (Homo sapiens, UniProt O94921); assay: Radiometric protein kinase assay (33PanQinase), CDK14_CycY; type: biochemical
# CDK15_CycA2 = biological target: T6, CDK15_CycA2 (Homo sapiens, UniProt Q96Q40); assay: Radiometric protein kinase assay (33PanQinase), CDK15_CycA2; type: biochemical
# T6 construct: purchased Reaction Biology
# CDK16_CycY = biological target: T7, CDK16_CycY (Homo sapiens, UniProt Q00536); assay: Radiometric protein kinase assay (33PanQinase), CDK16_CycY; type: biochemical
# T7 construct: purchased Reaction Biology
# CDK17_p35NCK = CDK17_p35NCK (Homo sapiens, UniProt Q00537); assay: Radiometric protein kinase assay (33PanQinase), CDK17_p35NCK; type: biochemical
# CDK18_CycY = CDK18_CycY (Homo sapiens, UniProt Q07002); assay: Radiometric protein kinase assay (33PanQinase), CDK18_CycY; type: biochemical
# CDK19_CycC = biological target: T8, CDK19_CycC (Homo sapiens, UniProt Q9BWU1); assay: Radiometric protein kinase assay (33PanQinase), CDK19_CycC; type: biochemical
# T8 construct: purchased Reaction Biology
# CDK2_CycA2 = biological target: T9, CDK2_CycA2 (Homo sapiens, UniProt P24941); assay: Radiometric protein kinase assay (33PanQinase), CDK2_CycA2; type: biochemical
# T9 construct: purchased Reaction Biology
# CDK2_CycD1 = biological target: T10, CDK2_CycD1 (Homo sapiens, UniProt P24941); assay: Radiometric protein kinase assay (33PanQinase), CDK2_CycD1; type: biochemical
# T10 construct: purchased Reaction Biology
# CDK2_CycE1 = biological target: T11, CDK2_CycE1 (Homo sapiens, UniProt P24941); assay: Radiometric protein kinase assay (33PanQinase), CDK2_CycE1; type: biochemical
# T11 construct: purchased Reaction Biology
# CDK20_CycH = CDK20_CycH (Homo sapiens, UniProt Q8IZL9); assay: Radiometric protein kinase assay (33PanQinase), CDK20_CycH; type: biochemical
# CDK20_CycT1 = CDK20_CycT1 (Homo sapiens, UniProt Q8IZL9); assay: Radiometric protein kinase assay (33PanQinase), CDK20_CycT1; type: biochemical
# CDK3_CycC = biological target: T12, CDK3_CycC (Homo sapiens, UniProt Q00526); assay: Radiometric protein kinase assay (33PanQinase), CDK3_CycC; type: biochemical
# T12 construct: purchased Reaction Biology
# CDK3_CycE1 = biological target: T13, CDK3_CycE1 (Homo sapiens, UniProt Q00526); assay: Radiometric protein kinase assay (33PanQinase), CDK3_CycE1; type: biochemical
# T13 construct: purchased Reaction Biology
# CDK4_CycD1 = biological target: T14, CDK4_CycD1 (Homo sapiens, UniProt P11802); assay: Radiometric protein kinase assay (33PanQinase), CDK4_CycD1; type: biochemical
# T14 construct: purchased Reaction Biology
# CDK4_CycD2 = biological target: T15, CDK4_CycD2 (Homo sapiens, UniProt P11802); assay: Radiometric protein kinase assay (33PanQinase), CDK4_CycD2; type: biochemical
# T15 construct: purchased Reaction Biology
# CDK4_CycD3 = biological target: T16, CDK4_CycD3 (Homo sapiens, UniProt P11802); assay: Radiometric protein kinase assay (33PanQinase), CDK4_CycD3; type: biochemical
# T16 construct: purchased Reaction Biology
# CDK5_p25NCK = biological target: T17, CDK5_p25NCK (Homo sapiens, UniProt Q00535); assay: Radiometric protein kinase assay (33PanQinase), CDK5_p25NCK; type: biochemical
# T17 construct: purchased Reaction Biology
# CDK5_p35NCK = biological target: T18, CDK5_p35NCK (Homo sapiens, UniProt Q00535); assay: Radiometric protein kinase assay (33PanQinase), CDK5_p35NCK; type: biochemical
# T18 construct: purchased Reaction Biology
# CDK6_CycD1 = biological target: T19, CDK6_CycD1 (Homo sapiens, UniProt Q00534); assay: Radiometric protein kinase assay (33PanQinase), CDK6_CycD1; type: biochemical
# T19 construct: purchased Reaction Biology
# CDK6_CycD2 = biological target: T20, CDK6_CycD2 (Homo sapiens, UniProt Q00534); assay: Radiometric protein kinase assay (33PanQinase), CDK6_CycD2; type: biochemical
# T20 construct: purchased Reaction Biology
# CDK6_CycD3 = biological target: T21, CDK6_CycD3 (Homo sapiens, UniProt Q00534); assay: Radiometric protein kinase assay (33PanQinase), CDK6_CycD3; type: biochemical; conditions: slope of the IC50 fit
# T21 construct: purchased Reaction Biology
# CDK7_CycH_MAT1 = biological target: T22, CDK7_CycH_MAT1 (Homo sapiens, UniProt P50613); assay: Radiometric protein kinase assay (33PanQinase), CDK7_CycH_MAT1; type: biochemical
# T22 construct: purchased Reaction Biology
# CDK8_CycC = biological target: T23, CDK8_CycC (Homo sapiens, UniProt P49336); assay: Radiometric protein kinase assay (33PanQinase), CDK8_CycC; type: biochemical
# T23 construct: purchased Reaction Biology
# CDK9_CycK = biological target: T24, CDK9_CycK (Homo sapiens, UniProt P50750); assay: Radiometric protein kinase assay (33PanQinase), CDK9_CycK; type: biochemical
# T24 construct: purchased Reaction Biology
# CDK9_CycT1 = biological target: T25, CDK9_CycT1 (Homo sapiens, UniProt P50750); assay: Radiometric protein kinase assay (33PanQinase), CDK9_CycT1; type: biochemical
# T25 construct: purchased Reaction Biology
# COLO205 cells = assay: Promoter reporter panel (transient luciferase constructs), COLO205; type: cell-based, human; conditions: COLO205, 350 nM, 6 h
# Method: Transcription factor activity was assayed in cell lines using 45 different plasmid reporter constructs encoding firefly luciferase under the control of a basal promoter element downstream of specific transcriptional response elements (Qiagen, Germany; Supporting Table S1). Firefly luciferase under the control of basal promoter element alone was used to establish the baseline signal and cotransfection of a construct expressing renilla luciferase from a CMV-promoter was used as a transfection control. Cells were reverse-transfected with reporter plasmids, compounds were added 42 h post transfection and reporter activity quantified following 6 h continuous exposure.
# Transcription factor promoter reporter assays were carried out to define signalling pathways and biological processes modulated by CDK8/19 ligands. A panel of plasmid reporter constructs encoding firefly luciferase under the control of a basal promoter element with specific transcriptional response elements were used (Qiagen, Germany;
# Firefly luciferase under the control of the minimal promoter element (TATA box) alone was used to establish the base-line signal and a construct expressing renilla luciferase from a CMV-promoter was used as a transfection control. COLO205 human colon cancer cells or SW620 parental and CRISPR KO cells were reverse-transfected with the panel of plasmid reporters in a 96 well plate format. The reporter mixes were prepared at 40:1 ratio of fLUC to rLUC plasmid at a final concentration of
# 100 ng/ml. For each well 1 ul plasmid was complexed with 1 ul Lipofectamine 2000
# (Thermo Fisher Scientific, UK) in 50 ul OptiMEM (Thermo Fisher Scientific, UK) media
# for 20 mins at room temperature. Cells were trypsinised and 50 ul of cells at 2e5
# cells/ml in supplemented DMEM were added to the 50 ul of plasmid:lipofectamine
# mixture in OptiMEM in a well of a 96-well white opaque flat bottom microtiter plate.
# fLUC and rLUC were measured by the addition of 100 ul dual glo luciferase reagent
# (Promega, USA). Reporter activity was quantified in untreated cells 48 hours post- […]
# CDK8 = system: CDK8; set-up: method as in numbers not given; conditions: reporter displacement assay; previously characterized compounds, no method in this paper; ref numbers not given; read-out: IC50 for in vitro CDK8 binding; cited from earlier work
# [1] = highest assay concentration 1.00E-05 M
# T6 sequence (Q96Q40 whole entry): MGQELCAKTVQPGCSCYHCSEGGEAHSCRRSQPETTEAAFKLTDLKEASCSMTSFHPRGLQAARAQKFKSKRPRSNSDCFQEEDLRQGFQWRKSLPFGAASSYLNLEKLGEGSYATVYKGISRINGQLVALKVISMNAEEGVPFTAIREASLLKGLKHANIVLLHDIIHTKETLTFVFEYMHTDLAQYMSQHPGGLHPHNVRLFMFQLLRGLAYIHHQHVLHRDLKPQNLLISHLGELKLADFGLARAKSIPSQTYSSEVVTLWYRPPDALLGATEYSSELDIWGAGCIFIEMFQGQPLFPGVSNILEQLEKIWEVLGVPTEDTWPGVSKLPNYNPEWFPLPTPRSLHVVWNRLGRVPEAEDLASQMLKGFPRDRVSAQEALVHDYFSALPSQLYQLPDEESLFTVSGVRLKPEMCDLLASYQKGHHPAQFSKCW
# T7 sequence (Q00536 whole entry): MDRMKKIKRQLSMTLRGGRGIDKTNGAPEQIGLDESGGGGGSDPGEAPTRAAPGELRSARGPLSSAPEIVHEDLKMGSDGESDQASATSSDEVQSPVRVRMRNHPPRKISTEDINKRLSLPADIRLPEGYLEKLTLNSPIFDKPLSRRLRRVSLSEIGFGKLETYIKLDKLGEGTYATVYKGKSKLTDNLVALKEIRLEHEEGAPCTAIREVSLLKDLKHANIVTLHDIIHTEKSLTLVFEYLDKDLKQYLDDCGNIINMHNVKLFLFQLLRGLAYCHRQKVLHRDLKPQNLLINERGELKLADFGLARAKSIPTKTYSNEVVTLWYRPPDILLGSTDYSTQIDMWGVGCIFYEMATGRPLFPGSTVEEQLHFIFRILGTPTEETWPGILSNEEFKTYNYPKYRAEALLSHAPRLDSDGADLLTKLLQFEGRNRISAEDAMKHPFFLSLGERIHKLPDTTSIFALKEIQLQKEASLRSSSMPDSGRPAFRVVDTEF
# T7 sequence (Q8ND76 whole entry partner): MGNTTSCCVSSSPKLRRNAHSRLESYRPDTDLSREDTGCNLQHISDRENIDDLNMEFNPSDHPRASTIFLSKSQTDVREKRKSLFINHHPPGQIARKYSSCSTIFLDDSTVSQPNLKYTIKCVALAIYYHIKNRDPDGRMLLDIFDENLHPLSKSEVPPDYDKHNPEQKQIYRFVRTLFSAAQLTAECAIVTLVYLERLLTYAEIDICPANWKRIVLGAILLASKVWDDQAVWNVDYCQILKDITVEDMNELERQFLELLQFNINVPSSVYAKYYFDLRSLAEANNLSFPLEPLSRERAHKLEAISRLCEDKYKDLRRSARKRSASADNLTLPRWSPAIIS
# T8 sequence (Q9BWU1 whole entry): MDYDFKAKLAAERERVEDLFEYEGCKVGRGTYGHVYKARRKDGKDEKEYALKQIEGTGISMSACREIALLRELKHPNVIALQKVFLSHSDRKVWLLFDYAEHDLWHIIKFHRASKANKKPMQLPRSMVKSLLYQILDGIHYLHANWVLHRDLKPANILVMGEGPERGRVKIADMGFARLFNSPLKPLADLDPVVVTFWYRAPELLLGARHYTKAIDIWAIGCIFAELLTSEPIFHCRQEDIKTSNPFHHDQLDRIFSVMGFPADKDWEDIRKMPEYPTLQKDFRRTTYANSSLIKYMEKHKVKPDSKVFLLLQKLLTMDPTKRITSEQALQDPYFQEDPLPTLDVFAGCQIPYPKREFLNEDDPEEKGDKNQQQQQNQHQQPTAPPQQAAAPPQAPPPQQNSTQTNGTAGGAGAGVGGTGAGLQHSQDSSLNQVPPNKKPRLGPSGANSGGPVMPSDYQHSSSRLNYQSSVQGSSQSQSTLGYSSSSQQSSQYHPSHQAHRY
# T8 sequence (P24863 whole entry partner): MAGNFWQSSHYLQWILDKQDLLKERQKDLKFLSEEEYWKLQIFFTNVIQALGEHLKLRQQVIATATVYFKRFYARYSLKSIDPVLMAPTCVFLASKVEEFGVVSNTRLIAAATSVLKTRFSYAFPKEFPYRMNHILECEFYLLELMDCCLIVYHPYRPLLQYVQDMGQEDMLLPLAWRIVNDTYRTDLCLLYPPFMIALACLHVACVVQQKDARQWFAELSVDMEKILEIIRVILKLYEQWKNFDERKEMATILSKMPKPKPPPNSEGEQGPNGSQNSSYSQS
# T22 sequence (P50613 whole entry): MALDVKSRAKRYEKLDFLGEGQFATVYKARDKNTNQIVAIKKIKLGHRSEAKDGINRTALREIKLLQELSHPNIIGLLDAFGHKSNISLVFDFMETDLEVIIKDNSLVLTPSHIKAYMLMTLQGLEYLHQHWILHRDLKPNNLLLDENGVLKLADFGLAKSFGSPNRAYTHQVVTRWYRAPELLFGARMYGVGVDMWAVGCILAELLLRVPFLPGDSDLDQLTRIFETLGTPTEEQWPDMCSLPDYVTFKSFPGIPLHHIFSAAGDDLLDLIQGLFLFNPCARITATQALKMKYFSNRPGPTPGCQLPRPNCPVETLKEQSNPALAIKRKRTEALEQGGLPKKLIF
# T22 sequence (P51946 whole entry partner): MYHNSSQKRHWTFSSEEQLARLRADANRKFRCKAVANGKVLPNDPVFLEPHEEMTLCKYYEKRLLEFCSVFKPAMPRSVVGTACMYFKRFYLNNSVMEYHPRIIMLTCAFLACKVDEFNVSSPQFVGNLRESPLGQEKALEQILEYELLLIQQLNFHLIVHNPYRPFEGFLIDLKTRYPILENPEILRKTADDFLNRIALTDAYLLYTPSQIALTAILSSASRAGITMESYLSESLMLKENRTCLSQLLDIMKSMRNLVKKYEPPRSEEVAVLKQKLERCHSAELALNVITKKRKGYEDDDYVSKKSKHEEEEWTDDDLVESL
# T22 sequence (P51948 whole entry partner): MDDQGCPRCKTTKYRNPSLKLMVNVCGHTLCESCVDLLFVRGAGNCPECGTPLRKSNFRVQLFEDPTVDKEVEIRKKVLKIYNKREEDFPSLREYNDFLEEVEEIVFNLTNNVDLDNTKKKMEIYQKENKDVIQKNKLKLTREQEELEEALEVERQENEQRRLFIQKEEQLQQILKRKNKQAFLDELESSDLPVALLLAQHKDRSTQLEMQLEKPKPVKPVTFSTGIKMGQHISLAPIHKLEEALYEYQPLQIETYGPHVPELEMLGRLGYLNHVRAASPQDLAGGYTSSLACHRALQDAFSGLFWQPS
# T20 sequence (Q00534 whole entry): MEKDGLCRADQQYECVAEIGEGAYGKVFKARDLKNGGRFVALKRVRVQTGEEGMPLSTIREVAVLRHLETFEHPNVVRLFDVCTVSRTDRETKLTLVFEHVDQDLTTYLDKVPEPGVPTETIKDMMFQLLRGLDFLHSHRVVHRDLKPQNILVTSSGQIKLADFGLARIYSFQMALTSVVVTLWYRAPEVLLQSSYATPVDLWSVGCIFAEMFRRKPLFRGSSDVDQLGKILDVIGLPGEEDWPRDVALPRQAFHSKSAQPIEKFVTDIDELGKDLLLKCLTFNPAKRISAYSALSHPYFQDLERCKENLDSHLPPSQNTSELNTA
# T20 sequence (P30279 whole entry partner): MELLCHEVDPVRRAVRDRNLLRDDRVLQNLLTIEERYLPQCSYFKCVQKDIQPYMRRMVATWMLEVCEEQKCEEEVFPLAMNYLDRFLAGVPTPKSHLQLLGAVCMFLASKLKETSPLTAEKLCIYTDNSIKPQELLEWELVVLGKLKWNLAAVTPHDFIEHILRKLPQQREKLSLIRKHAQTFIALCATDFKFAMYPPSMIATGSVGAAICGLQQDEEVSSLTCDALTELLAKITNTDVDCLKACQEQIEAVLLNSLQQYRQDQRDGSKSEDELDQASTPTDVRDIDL
# Sequence of CDK11B 357-795_CycK (P21127 357-795): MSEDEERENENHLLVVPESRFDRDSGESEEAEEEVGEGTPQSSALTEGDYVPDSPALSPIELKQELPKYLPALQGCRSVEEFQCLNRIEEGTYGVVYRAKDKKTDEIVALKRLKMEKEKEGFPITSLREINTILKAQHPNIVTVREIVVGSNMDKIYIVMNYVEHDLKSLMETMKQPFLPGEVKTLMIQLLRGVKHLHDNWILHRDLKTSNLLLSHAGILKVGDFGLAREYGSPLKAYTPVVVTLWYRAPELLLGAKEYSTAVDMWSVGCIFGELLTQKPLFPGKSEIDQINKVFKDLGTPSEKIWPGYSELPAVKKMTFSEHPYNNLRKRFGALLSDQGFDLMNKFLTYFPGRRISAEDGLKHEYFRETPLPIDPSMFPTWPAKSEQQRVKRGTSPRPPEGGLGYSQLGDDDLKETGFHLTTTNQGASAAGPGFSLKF
# T15 sequence (P11802 whole entry): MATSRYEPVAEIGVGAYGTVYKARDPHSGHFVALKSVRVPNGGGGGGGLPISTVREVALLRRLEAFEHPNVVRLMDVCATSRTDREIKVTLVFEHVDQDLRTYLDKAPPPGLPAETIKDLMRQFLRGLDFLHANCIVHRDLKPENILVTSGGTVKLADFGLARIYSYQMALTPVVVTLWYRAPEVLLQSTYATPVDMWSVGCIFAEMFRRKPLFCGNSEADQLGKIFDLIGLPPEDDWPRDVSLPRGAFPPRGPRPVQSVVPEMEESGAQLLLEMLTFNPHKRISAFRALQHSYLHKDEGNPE
# T15 sequence (P30279 whole entry partner): as the sequence (P30279 whole entry partner) above
# T16 sequence (P11802 whole entry): as the sequence (P11802 whole entry) above
# T16 sequence (P30281 whole entry partner): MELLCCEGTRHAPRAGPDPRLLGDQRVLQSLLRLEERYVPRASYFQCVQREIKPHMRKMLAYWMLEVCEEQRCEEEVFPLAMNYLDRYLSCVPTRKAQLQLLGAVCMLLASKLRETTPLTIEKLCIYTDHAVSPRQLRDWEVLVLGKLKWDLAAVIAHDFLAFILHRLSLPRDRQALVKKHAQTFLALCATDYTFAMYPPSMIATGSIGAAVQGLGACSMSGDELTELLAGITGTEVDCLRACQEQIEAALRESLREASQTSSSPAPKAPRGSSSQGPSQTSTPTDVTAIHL
# T21 sequence (Q00534 whole entry): as the sequence (Q00534 whole entry) above
# T21 sequence (P30281 whole entry partner): as the sequence (P30281 whole entry partner) above
structure (smiles),measurement,setting,value
Cc1n[nH]c2ncc(C(=O)N3CCC[C@H]3c3ccc(Cl)cc3)cc12 [MSC2530818],IC50,CDK1_CycA2,6.46 µM
same,Hill Slope,CDK1_CycA2; slope of the IC50 fit,-0.93
same,IC50,CDK1_CycB1; [1],> 10 µM
same,Hill Slope,CDK1_CycB1; slope of the IC50 fit,-0.72
same,IC50,CDK1_CycE1,4.15 µM
same,Hill Slope,CDK1_CycE1; slope of the IC50 fit,-0.97
same,IC50,CDK10_CycQ; [1],> 10 µM
same,Hill Slope,CDK10_CycQ; slope of the IC50 fit,-1.12
same,IC50,CDK11B 357-795_CycK; [1],> 10 µM
same,Hill Slope,CDK11B 357-795_CycK; slope of the IC50 fit,-0.64
same,IC50,CDK12_CycK; [1],9.75 µM
same,Hill Slope,CDK12_CycK; slope of the IC50 fit,-0.59
same,IC50,CDK13_CycK,> 10 µM
same,Hill Slope,CDK13_CycK; slope of the IC50 fit,-0.19
same,IC50,CDK14_CycY; [1],> 10 µM
same,Hill Slope,CDK14_CycY; slope of the IC50 fit,-1
same,IC50,CDK15_CycA2; [1],> 10 µM
same,Hill Slope,CDK15_CycA2; slope of the IC50 fit,-0.85
same,IC50,CDK16_CycY; [1],> 10 µM
same,Hill Slope,CDK16_CycY; slope of the IC50 fit,-0.58
same,IC50,CDK17_p35NCK; [1],> 10 µM
same,Hill Slope,CDK17_p35NCK; slope of the IC50 fit,-0.57
same,IC50,CDK18_CycY; [1],3.72 µM
same,Hill Slope,CDK18_CycY; slope of the IC50 fit,-1.14
same,IC50,CDK19_CycC,0.355 µM
same,Hill Slope,CDK19_CycC; slope of the IC50 fit,-0.43
same,IC50,CDK2_CycA2,6.53 µM
same,IC50,CDK2_CycD1,9.73 µM
same,Hill Slope,CDK2_CycD1; slope of the IC50 fit,-1.08
same,IC50,CDK2_CycE1,2.92 µM
same,Hill Slope,CDK2_CycE1; slope of the IC50 fit,-1.29
same,IC50,CDK20_CycH; [1],> 10 µM
same,Hill Slope,CDK20_CycH; slope of the IC50 fit,-0.81
same,IC50,CDK20_CycT1; [1],> 10 µM
same,Hill Slope,CDK20_CycT1; slope of the IC50 fit,-0.44
same,IC50,CDK3_CycC,6.41 µM
same,Hill Slope,CDK3_CycC; slope of the IC50 fit,-0.76
same,IC50,CDK3_CycE1,> 10 µM
same,Hill Slope,CDK3_CycE1; slope of the IC50 fit,-0.54
same,IC50,CDK4_CycD1; [1],> 10 µM
same,Hill Slope,CDK4_CycD1; slope of the IC50 fit,-0.48
same,IC50,CDK4_CycD2; [1],> 10 µM
same,Hill Slope,CDK4_CycD2; slope of the IC50 fit,-0.44
same,IC50,CDK4_CycD3; [1],> 10 µM
same,Hill Slope,CDK4_CycD3; slope of the IC50 fit,-0.71
same,IC50,CDK5_p25NCK; [1],> 10 µM
same,Hill Slope,CDK5_p25NCK; slope of the IC50 fit,-0.57
same,IC50,CDK5_p35NCK; [1],7.57 µM
same,Hill Slope,CDK5_p35NCK; slope of the IC50 fit,-1.04
same,IC50,CDK6_CycD1; [1],> 10 µM
same,Hill Slope,CDK6_CycD1; slope of the IC50 fit,-0.22
same,IC50,CDK6_CycD2; [1],> 10 µM
same,Hill Slope,CDK6_CycD2; slope of the IC50 fit,-1.11
same,Hill Slope,CDK6_CycD3,-0.25
same,IC50,CDK7_CycH_MAT1; [1],> 10 µM
same,Hill Slope,CDK7_CycH_MAT1; slope of the IC50 fit,-0.6
same,IC50,CDK8_CycC,0.114 µM
same,Hill Slope,CDK8_CycC; slope of the IC50 fit,-0.45
same,IC50,CDK9_CycK; [1],> 10 µM
same,Hill Slope,CDK9_CycK; slope of the IC50 fit,-0.78
same,IC50,CDK9_CycT1; [1],> 10 µM
same,Hill Slope,CDK9_CycT1; slope of the IC50 fit,-1.26
same,"reduction of activity of TCF/LEF, SP1 and PAX6 reporter constructs",COLO205 cells,> 1.5 fold
same,IC50,CDK8,0.0044 µM
Cc1n[nH]c2ncc(C(=O)N3CCC[C@@H]3c3ccc(Cl)cc3)cc12 [MSC2530819],IC50,CDK8,0.59 µM
